Patent US11542235B2, “Herbicidal 3-azaspiro[5.5] undecane-8, 10-dione compounds” (SYNGENTA PARTICIPATIONS AG, priority 2018, dated 2023)

Assays:
Assay type in all cases: in vivo
[1] = tested on: Echinochloa crus-galli (ECHCG); test: Glasshouse herbicidal test, pre- and post-emergence, Echinochloa crus-galli; conditions: 250 g/h, evaluated after 13 days, five point scale; for percentage damage caused to the plant, ECHCG POST: post-emergence; for percentage damage caused to the plant, ECHCG PRE: pre-emergence
Experimental: (§1) Seeds of a variety of test species are sown in standard soil in pots (Lolium perenne (LOLPE), Setaria faberi (SETFA), Alopecurus myosuroides (ALOMY), Echinochloa crus-galli (ECHCG), Avena fatua (AVEFA)). After cultivation for one day (pre-emergence) or after 8 days cultivation (post-emergence) under controlled conditions in a glasshouse (at 24/16° C., day/night; 14 hours light; 65% humidity), the plants are sprayed with an aqueous spray solution derived from the formulation of the technical active ingredient in acetone/water (50:50) solution containing 0.5% Tween 20 (polyoxyethelyene sorbitan monolaurate, CAS RN 9005-64-5). Compounds are applied at […]. The test plants are then grown in a glasshouse under controlled conditions in a glasshouse (at 24/16° C., day/night; 14 hours light; 65% humidity) and watered twice daily. After 13 days for pre and post-emergence, the test is evaluated for the percentage damage caused to the plant. The biological activities are shown in the following table on a five point scale (5=80-100%; 4=60-79%; 3=40-59%; 2=20-39%; 1=0-19%).

Setaria faberi (SETFA) = test: Glasshouse herbicidal test, pre- and post-emergence, Setaria faberi; conditions: 250 g/h, evaluated after 13 days, five point scale; for percentage damage caused to the plant, SETFA POST: post-emergence; for percentage damage caused to the plant, SETFA PRE: pre-emergence
Experimental: as §1

Lolium perenne (LOLPE) = test: Glasshouse herbicidal test, pre- and post-emergence, Lolium perenne; conditions: 250 g/h, evaluated after 13 days, five point scale; for percentage damage caused to the plant, LOLPE POST: post-emergence; for percentage damage caused to the plant, LOLPE PRE: pre-emergence
Experimental: as §1

[2] = tested on: Alopecurus myosuroides (ALOMY); test: Glasshouse herbicidal test, pre- and post-emergence, Alopecurus myosuroides; conditions: 250 g/h, evaluated after 13 days, five point scale; for percentage damage caused to the plant, ALOMY POST: post-emergence; for percentage damage caused to the plant, ALOMY PRE: pre-emergence
Experimental: as §1

Avena fatua (AVEFA) = test: Glasshouse herbicidal test, pre- and post-emergence, Avena fatua; conditions: 250 g/h, evaluated after 13 days, five point scale; for percentage damage caused to the plant, AVEFA POST: post-emergence; for percentage damage caused to the plant, AVEFA PRE: pre-emergence
Experimental: as §1

CC#Cc1cc(C)c(C2=C(OC(=O)OC(C)C)CC3(CCN(C(C)=O)CC3)CC2=O)c(C)c1 [Compound P10]
5 (5=80-100%): percentage damage caused to the plant, ECHCG POST [1] | percentage damage caused to the plant, ECHCG PRE [1] | percentage damage caused to the plant, SETFA POST (Setaria faberi (SETFA)) | percentage damage caused to the plant, SETFA PRE (Setaria faberi (SETFA)) | percentage damage caused to the plant, LOLPE POST (Lolium perenne (LOLPE)) | percentage damage caused to the plant, LOLPE PRE (Lolium perenne (LOLPE)) | percentage damage caused to the plant, ALOMY POST [2] | percentage damage caused to the plant, ALOMY PRE [2] | percentage damage caused to the plant, AVEFA POST (Avena fatua (AVEFA)) | percentage damage caused to the plant, AVEFA PRE (Avena fatua (AVEFA))

CC#Cc1cc(C)c(C2C(=O)CC3(CCN(C(=O)C(C)C(F)(F)F)CC3)CC2=O)c(C)c1 (stereo not drawn) [Compound A24]
5 (5=80-100%): percentage damage caused to the plant, ECHCG POST [1] | percentage damage caused to the plant, ECHCG PRE [1] | percentage damage caused to the plant, SETFA POST (Setaria faberi (SETFA)) | percentage damage caused to the plant, SETFA PRE (Setaria faberi (SETFA)) | percentage damage caused to the plant, LOLPE POST (Lolium perenne (LOLPE)) | percentage damage caused to the plant, LOLPE PRE (Lolium perenne (LOLPE)) | percentage damage caused to the plant, ALOMY POST [2] | percentage damage caused to the plant, ALOMY PRE [2] | percentage damage caused to the plant, AVEFA POST (Avena fatua (AVEFA)) | percentage damage caused to the plant, AVEFA PRE (Avena fatua (AVEFA))

CC#Cc1cc(C)c(C2=C(OC(=O)C(C)C)CC3(CCN(C(=O)C(C)C)CC3)CC2=O)c(C)c1 [Compound P7]
5 (5=80-100%): percentage damage caused to the plant, ECHCG POST [1] | percentage damage caused to the plant, ECHCG PRE [1] | percentage damage caused to the plant, SETFA POST (Setaria faberi (SETFA)) | percentage damage caused to the plant, SETFA PRE (Setaria faberi (SETFA)) | percentage damage caused to the plant, LOLPE POST (Lolium perenne (LOLPE)) | percentage damage caused to the plant, LOLPE PRE (Lolium perenne (LOLPE)) | percentage damage caused to the plant, ALOMY POST [2] | percentage damage caused to the plant, ALOMY PRE [2] | percentage damage caused to the plant, AVEFA POST (Avena fatua (AVEFA)) | percentage damage caused to the plant, AVEFA PRE (Avena fatua (AVEFA))

CC#Cc1cc(C)c(C2=C(OC(C)=O)CC3(CCN(OC)CC3)CC2=O)c(C)c1 [Compound P2]
5 (5=80-100%): percentage damage caused to the plant, ECHCG POST [1] | percentage damage caused to the plant, ECHCG PRE [1] | percentage damage caused to the plant, SETFA POST (Setaria faberi (SETFA)) | percentage damage caused to the plant, SETFA PRE (Setaria faberi (SETFA)) | percentage damage caused to the plant, LOLPE POST (Lolium perenne (LOLPE)) | percentage damage caused to the plant, LOLPE PRE (Lolium perenne (LOLPE)) | percentage damage caused to the plant, ALOMY POST [2] | percentage damage caused to the plant, ALOMY PRE [2] | percentage damage caused to the plant, AVEFA POST (Avena fatua (AVEFA)) | percentage damage caused to the plant, AVEFA PRE (Avena fatua (AVEFA))

CC#Cc1cc(C)c(C2=C(OC(=O)OC)CC3(CCN(C(C)=O)CC3)CC2=O)c(OC)c1 [Compound P18]
5 (5=80-100%): percentage damage caused to the plant, ECHCG PRE [1] | percentage damage caused to the plant, SETFA POST (Setaria faberi (SETFA)) | percentage damage caused to the plant, SETFA PRE (Setaria faberi (SETFA)) | percentage damage caused to the plant, LOLPE POST (Lolium perenne (LOLPE)) | percentage damage caused to the plant, LOLPE PRE (Lolium perenne (LOLPE)) | percentage damage caused to the plant, ALOMY POST [2] | percentage damage caused to the plant, ALOMY PRE [2] | percentage damage caused to the plant, AVEFA POST (Avena fatua (AVEFA)) | percentage damage caused to the plant, AVEFA PRE (Avena fatua (AVEFA))

CC#Cc1cc(C)c(C2C(=O)CC3(CCN(CC(F)(F)F)CC3)CC2=O)c(C)c1 [Compound A7]
5 (5=80-100%): percentage damage caused to the plant, ECHCG POST [1] | percentage damage caused to the plant, ECHCG PRE [1] | percentage damage caused to the plant, SETFA POST (Setaria faberi (SETFA)) | percentage damage caused to the plant, SETFA PRE (Setaria faberi (SETFA)) | percentage damage caused to the plant, LOLPE POST (Lolium perenne (LOLPE)) | percentage damage caused to the plant, LOLPE PRE (Lolium perenne (LOLPE)) | percentage damage caused to the plant, ALOMY POST [2] | percentage damage caused to the plant, ALOMY PRE [2] | percentage damage caused to the plant, AVEFA POST (Avena fatua (AVEFA)) | percentage damage caused to the plant, AVEFA PRE (Avena fatua (AVEFA))

CC#Cc1cc(C)c(C2=C(OC(=O)OC)CC3(CCN(OC)CC3)CC2=O)c(C)c1 [Compound P3]
5 (5=80-100%): percentage damage caused to the plant, ECHCG POST [1] | percentage damage caused to the plant, ECHCG PRE [1] | percentage damage caused to the plant, SETFA POST (Setaria faberi (SETFA)) | percentage damage caused to the plant, SETFA PRE (Setaria faberi (SETFA)) | percentage damage caused to the plant, LOLPE POST (Lolium perenne (LOLPE)) | percentage damage caused to the plant, LOLPE PRE (Lolium perenne (LOLPE)) | percentage damage caused to the plant, ALOMY POST [2] | percentage damage caused to the plant, ALOMY PRE [2] | percentage damage caused to the plant, AVEFA POST (Avena fatua (AVEFA)) | percentage damage caused to the plant, AVEFA PRE (Avena fatua (AVEFA))
